This note sets out measurements from a melting point compilation (Tetko et al.; mined from patent text by program, amines drawn as free bases though some values may be those of a salt).

By melting point is commonly meant the temperature of the solid-liquid transition. In turn, `O=C(c1ccccc1)N1CCC(Nc2ccccc2Oc2ccc(Cl)cc2Cl)CC1` displayed a melting point of 55 to 58 °C.

As for `O=C1C(=O)N2c3ccccc3Sc3cccc1c32`, the melting point was 203 to 206 °C.

With `CCCOC(=O)c1ccc2c3cccc4cccc(c5ccc(C(=O)OCCC)c1c25)c43`, the melting point was found to be 253 °C.

Turning to `Oc1ccc(Sc2ccc(-c3ccc(Sc4ccc(O)cc4)cc3)cc2)cc1`, the melting point was 214 to 217 °C.

`Cc1ncnc(Cl)c1C` showed a melting point of 45 to 47 °C.

For the compound `COC1C2=C3C(=CN1OC)OCCC3CCC2` (stereo not given), the melting point lay within 235 to 238 °C.

`COC(=O)[C@H](Cc1ccccc1)NC(=O)[C@H](Cc1ccccc1)NC(=S)Cc1ccc(C)cc1` displayed a melting point of 115 to 117 °C.

Compound `C=CCOc1cc(=O)n(-c2ccccc2)c2ncccc12` yielded a melting point of 171 to 174 °C.

Take `CCOC(=O)C(=O)CC(=O)/C=C/c1ccc(Cl)cc1`: the melting point was 117 to 118 °C.

`COc1ccc(C2=C(c3c4n(c5ccccc35)CCC(COC(C)=O)C4)C(=O)OC2=O)cc1` (stereo not given) gave a melting point of 79 to 82 °C.

Compound `O=C(CCCCl)CN1C(=O)c2ccccc2C1=O` had a melting point of 133 to 134 °C.

Regarding `Cn1cc(Br)c(=O)c(-c2ccccc2)c1`, the melting point lay within 195 to 197 °C.

The compound `CC1OOC2CC1CC(=O)C2C` (stereo not given) registered a melting point of 160 °C.

As to `CCCS(=O)(=O)c1ccc(NS(=O)(=O)c2cccs2)c2[nH]c(C(=O)OCC)cc12`, the melting point lay within 201 to 202 °C.

`CC(=O)OC1CSC(Oc2cccnc2C(C)=O)C(OC(C)=O)C1OC(C)=O` (stereo not given) returned a melting point of 168 °C.

In turn, `CCNC(=O)Nc1cn2ccc(-c3c(C)noc3C)cc2n1` came in with a melting point of 204 to 206 °C.

The compound `CC(C)(C)n1cc(-c2ccc(-c3ccccc3)cc2)c2c(N)ncnc21` gave a melting point of 212 to 214 °C.

`Cn1c(=O)c(=O)[nH]c2cc(Cl)ccc21` yielded a melting point of 342 °C.

`CC(C)n1nc(C(=O)Cl)c2ccccc21` returned a melting point of 63 to 64 °C.

For `Oc1nc2cc(F)ccc2n2c(C(F)(F)F)nnc12`, the melting point was in the range of 298 to 302 °C.

In turn, `COC(=O)C1=NNC(C)=C(C(=O)OC)C1c1ccccc1` (stereo not given) returned a melting point of 187 °C.

As to `CC1=C(C(=O)OC(C)(C)C)C(c2ccc(F)c(Br)c2)C(C(=O)OC(C)(C)C)=C(C)N1`, the melting point was in the range of 171 to 172 °C.

Take `CCCCCCON=C(C(=O)OCC)c1csc(N)n1`: the melting point was 77 to 78 °C.

For `CCCCCCC(=O)C(NC(=O)C=Cc1ccccc1)C(=O)OC` (stereo not given), the melting point lay within 85 to 86 °C.

In the case of `Cn1cc(-c2cc(-c3ccc(N)nc3)ccn2)n(-c2ccc(C(C)(C)C#N)cc2)c1=O`, the melting point came to 252 °C.

On to `O=c1n(CC(F)(F)F)c2cc(F)ccc2n1C1CCNCC1`, for which the melting point is over 280 °C.

As for `CCC(C)N(C)C(=O)c1cc(-c2ccccc2)c2ccsc2c1` (stereo not given), the melting point was 84 °C.

As to `CC1(C)CC(=O)c2c(C3CCC3)sc(-c3nccs3)c2C1`, the melting point lay within 126 to 128 °C.

Compound `CCN(CC)CCNC(=NC#N)NCCCSc1nccc(NC(N)=NCC(F)(F)F)n1` yielded a melting point of 76 to 80 °C.

Compound `COC(=O)C(C)Oc1ccc(NC(=O)COCc2ccccc2)cc1` (stereo not given) came in with a melting point of 67 to 70 °C.

Take `CCOc1cc2c(cc1OCC)CCCC(C(=O)N1CCN(C(=O)c3cc(OC)c(OC)c(OC)c3)CC1)=C2`: the melting point is 183 to 185 °C.

Take `COc1ccc(/C=C/c2ccc3c(Nc4cc(OC)c(Cl)cc4Cl)c(C#N)cnc3c2)cc1`: the melting point lay in the range of 216 to 220 °C.

Take `CCCn1nc(CC)c(C(=O)O)c1Cc1ccc(-c2ccccc2-c2nnn[nH]2)cc1`: the melting point is 229 °C.

In the case of `COc1ccc(C(=O)c2ccc(OCc3nc(-c4ccccc4)oc3C)cc2)c(OC(C)C(=O)O)c1` (stereo not given), the melting point lay within 100 to 102 °C.

In the case of `Cc1cc(-n2cnnn2)cc2c1NC(=O)CC2`, the melting point fell in the range of 271 to 272 °C.

In the case of `Cc1cc(-c2c(C)ccc(C(=S)OC(C)(C)C)c2C)on1`, the melting point was 102 to 103 °C.

For `COCc1nc(C(C)(C)O)c(C(=O)OCc2oc(=O)oc2C)n1Cc1ccc(-c2ccccc2-c2nnn[nH]2)cc1`, the melting point lay in the range of 138 to 140 °C.

In turn, `O=C(Nc1ccc(C(=O)N2C[C@H]3C[C@H](F)CN3c3ccccc32)cc1)c1ccccc1-c1ccccc1` displayed a melting point of 136 to 145 °C.

Regarding `CCCN(CCC)C(=O)c1cc(C(=O)O)cc(-c2ncco2)c1`, the melting point is 131 to 133 °C.

Compound `CNc1nc2ccccc2c(-c2ccccc2)c1C(=O)N(C)Cc1cc(C(F)(F)F)cc(C(F)(F)F)c1` displayed a melting point of 173 to 174 °C.

`CCCSc1ccc(C(=O)C(=O)O)[nH]1` displayed a melting point of 87 °C.

Consider `CC1(C)OC(c2ccccc2)CN1C(=O)C(Cl)Cl` (stereo not given), for which the melting point was in the range of 99.5 to 100 °C.

For `COc1cc2ccccc2c(C2NCCc3ccccc32)c1O` (stereo not given), the melting point lay in the range of 154 to 156 °C.

Turning to `Cc1ccc(S(=O)(=O)OCC(NC(=O)OC(C)(C)C)C(C)C)cc1` (stereo not given), the melting point amounted to 85 °C.

Compound `Nc1ncc(-c2ccccc2)c(N)n1` returned a melting point of 162 to 164 °C.

Consider `Oc1ccc(-c2nnc(-c3cccc(-c4nnc(-c5ccc(O)cc5)o4)c3)o2)cc1`, for which the melting point is over 400 °C.

`Clc1ccc(-c2noc(CCC#Cc3ccccn3)n2)cc1` gave a melting point of 75 to 77 °C.

`CN1CCc2c(ccc3[nH]c(=O)c(=O)[nH]c23)C1`: the melting point lay in the range of 310 to 335 °C.

The compound `CC(C)(Sc1nnnn1-c1ccccc1)c1ccc([N+](=O)[O-])cc1` came in with a melting point of 122 °C.

With `O=C1c2c(-c3ccccc3)c3ccccc3c(=O)n2CCN1Cc1cc(C(F)(F)F)cc(C(F)(F)F)c1`, the melting point fell in the range of 194 to 196 °C.

The compound `O=P(c1ccccc1)(c1ccccc1)c1nnc(P(=O)(c2ccccc2)c2ccccc2)c2ccccc12` showed a melting point of 225 to 228 °C.

As for `CCCCc1nn(-c2cc(N)ccc2Cl)c(C(=O)OCC)c1Cc1ccc(-c2ccccc2S(=O)(=O)NC(=O)c2ccccc2Cl)cc1`, the melting point is over 75 °C.

On to `O=c1[nH]c2cccnc2n1-c1ccc2c(c1)COC2`, for which the melting point turned out to be 243 °C.

Turning to `COC(=O)Cc1cc2c(c([N+](=O)[O-])c1)NCC2`, the melting point lay in the range of 113 to 115 °C.

On to `O=C1C=C(c2ccc(O)cc2)S(=O)(=O)c2ccccc21`, for which the melting point fell in the range of 222 to 224 °C.

As for `Cn1nc(-c2cccc(C(F)(F)F)c2)c(Br)c1C(=O)O`, the melting point fell in the range of 182 to 184 °C.

In turn, `CCOC(=O)C=Cc1csc(-c2ccc(OC)c(C(C)(C)C)c2)c1` displayed a melting point of 119 to 120 °C.

`CCN1C(=O)C(C)(C)C(=O)N(C)c2cc(OCCCn3c(-c4ccccc4)cc4ccccc43)ccc21` registered a melting point of 140 to 142 °C.

As to `O=C1C(c2ccccc2)SCN1CCCCBr` (stereo not given), the melting point is 48 to 50 °C.

In turn, `CCCc1nncn1-c1ccc(O)cc1` returned a melting point of 176 °C.

Take `Cc1ccn(-c2nccc3[nH]c(=O)ccc23)n1`: the melting point is over 300 °C.

For the compound `COc1ccc2c(Nc3ccc(Cl)cc3F)c(C#N)cnc2c1`, the melting point lay in the range of 208 to 210 °C.

For the compound `CCC(CCC1(C(N)=O)c2ccccc2-c2ccccc21)NC(C)C` (stereo not given), the melting point is 161 to 163 °C.

Consider `CN(C)S(=O)(=O)c1cc([N+](=O)[O-])c(N)c([N+](=O)[O-])c1`, for which the melting point is 169 to 170 °C.

With `CCOC(Cc1ccc(NCc2ccc(O)cc2)cc1)C(=O)OC` (stereo not given), the melting point was 109 to 110 °C.

The compound `CCCc1c(OCCCSc2cccc(CC(=O)OC)c2F)ccc(C(C)=O)c1O` came in with a melting point of 63 to 65 °C.

As to `CC(=O)OC1(N=NC2(OC(C)=O)CC(C)CC(C)(C)C2)CC(C)CC(C)(C)C1` (stereo not given), the melting point lay within 111 to 115 °C.

Turning to `O=S(CCCCCOc1ccc(C2=C(c3ccccc3)CCCc3cc(O)ccc32)cc1)Cc1ccccc1` (stereo not given), the melting point stood at 196 °C.

`Cc1cccc(CCOc2ccc([N+](=O)[O-])cc2)n1`: the melting point was in the range of 61 to 62 °C.

`COc1ccc(/C=C/c2c(Cl)cncc2Cl)cc1OC1CCCC1` showed a melting point of 99 to 101 °C.

The compound `Cc1nn(-c2cc(Oc3ccc(O)cn3)c(Cl)cc2F)c(=O)n1C(F)F` came in with a melting point of 179 to 181 °C.

Compound `Cc1ccc(NC(=O)c2ccc(N)c([N+](=O)[O-])c2)cc1C` showed a melting point of 192 to 195 °C.

With `c1cc2c3c(cccc3c1)C(NOCCCCn1ccnc1)=N2`, the melting point was in the range of 126 to 128 °C.

As to `CCCCOc1nc(N)c2[nH]c(=O)n(CCCNc3cccc(CC(=O)OC)c3)c2n1`, the melting point fell in the range of 208 to 209 °C.

The compound `CNc1cc(Oc2ccc3c(c2)OCCN3)ncn1` returned a melting point of 153 °C.

On to `Cc1nc2ccc(Cl)nn2c1Br`, for which the melting point lay in the range of 146 to 148 °C.

The compound `CN(CC(=O)Nc1cccc(-c2cc(-c3ccccc3O)nc(NC(=O)c3cccs3)c2C#N)c1)C(=O)OC(C)(C)C` came in with a melting point of 143 to 149 °C.

Turning to `COC(=S)NS(=O)(=O)c1ccc(Cl)cc1`, the melting point fell in the range of 129 to 130 °C.

In turn, `CSc1ccc(-c2nn(CC3CC3)c(=S)cc2-c2ccc(F)cc2)cc1` gave a melting point of 136 °C.

For the compound `Nc1ccccc1Nc1ccccc1F`, the melting point was 82 to 83 °C.

Compound `CCC(CC)Nc1nc(C)nc(N2CCc3cc(Cl)cc(Cl)c32)c1C#N` showed a melting point of 163 to 165 °C.

Consider `COc1ccc(C2(C#N)CCC(NS(C)(=O)=O)CC2)c2c1oc1ccccc12` (stereo not given), for which the melting point lay in the range of 176 to 178 °C.

`Cc1ccc(C#Cc2cnc(-c3ccc(C(F)(F)F)cc3)s2)s1` had a melting point of 107 to 108 °C.

On to `NC(=O)c1nnn(Cc2ccc(S(=O)c3ccc(Cl)cc3)c(Cl)c2)c1N` (stereo not given), for which the melting point lay in the range of 237 to 238 °C.

Consider `Cc1nc(-c2ccc(Br)cc2)n(-c2ccc(S(C)(=O)=O)cn2)n1`, for which the melting point fell in the range of 211 to 212 °C.

With `CC(C)NC(=O)C(F)(F)C(F)(F)F`, the melting point lay within 54 to 56 °C.

On to `CCOC(=O)c1cnoc1-c1ccc(OC)cc1`, for which the melting point lay within 54 to 55 °C.

`COC(=O)c1nn(S(=O)(=O)c2ccc(C)cc2)c2ccccc12` came in with a melting point of 163 to 165 °C.

For the compound `CC(C)n1nc(-c2c(-c3ccccc3)nn3ccc(OCC(=O)N4CCN(C(=O)N(C)C)CC4)cc23)ccc1=O`, the melting point fell in the range of 151 to 152 °C.

Turning to `Cc1cc(NC(=O)c2c(Cl)cccc2Cl)c2nccc(NNC(C)C)c2c1`, the melting point was 154 to 156 °C.
